Reference: patent publication EP0790996B1, “PYRIDAZINOQUINOLINE COMPOUNDS” (AstraZeneca AB, priority 1994, dated 1996)
Where two headings read alike, the source gives them in different places.

Key:
[1] = test system: NMDA-induced excitatory response of red nucleus cells; test: Red nucleus test (Test B); assay type: in vivo, Rats; settings: Rattus norvegicus
Experimental: The purpose of this test is to determine the effects of intravenously administered glycine antagonists on the NMDA-induced excitatory response of red nucleus cells.
The procedure for the red nucleus test is as follows. Rats are anesthetized with chloral hydrate (400 mg/kg ip) and the femoral vein is catheterized for iv drug administration. Five-barrel micropipettes are stereotaxically positioned in the red nucleus. Typically, three to four of the five barrels are filled as follows: the recording barrel with 2M potassium citrate, the current balancing barrel with 4M NaCl, the drug barrel with 25mM NMDA, and another drug barrel with 2.5mM quisqualic acid (QA is only used in selectivity studies). NMDA is iontophoretically applied with an ejection current that is adjusted depending on the sensitivity of each individual red nucleus cell. The NMDA is cycled on and off (usually 30 - 60 sec. on and 60 - 120 sec. off) and the firing rate of the cell during each period is recorded. Once the baseline firing rate of the cell has been established, the test drug is administered iv. The effect of the drug on the NMDA-induced excitatory response of the red nucleus cell can be both qualitatively and quantitatively evaluated from the recordings and the raw data accumulated.

[2] = target: T1, glycine receptor of the NMDA receptor complex (Rattus norvegicus, UniProt P35439); test: [3H]-glycine binding assay (Test A); design: species or system Sprague-Dawley rats; settings: 20 nanomolar [3H]-glycine, rat synaptic membranes, pH 7.1, 30 minutes at 4 °C
T1 construct: Freshly dissected cortices and hippocampi are homogenized in 0.32 M sucrose; from tissue; host or cells: rat cerebral cortex and hippocampus synaptic membranes
Experimental: In the [^3H]-glycine binding assay, neuronal synaptic membranes are prepared from adult (about 250 g) male Sprague-Dawley rats. Freshly dissected cortices and hippocampi are homogenized in 0.32 M sucrose (110 mg/mL). Synaptosomes are isolated by centrifugation (1000 xg, 10 min), the supernatant is pelleted (20,000 xg, 20 min) and resuspended in double-distilled water. The suspension was centrifuged for 20 minutes at 8,000 xg. The resulting […] and buffy coat are washed twice (48,000 xg, 10 mins, resuspension in double-deionized water). The final pellet is quickly frozen (dry ice/ethanol bath) under double-deionized water and stored at -70 °C.
On the day of the experiment, thawed synaptic membranes are homogenized with a Brinkmann Polytron (tm, Brinkmann Instruments, Westbury, N.Y.) tissue homogenizer in 50 millimolar tris(hydroxymethyl)aminomethane citrate, pH 7.1. The membranes are incubated with 0.04% Sufact-AMPS X100 (tm, Pierce, Rockford, IL) in buffer for 20 minutes at 37 °C and washed six times by centrifugation (48,000 xg, 10 min) and resuspended in buffer. The final pellet is homogenized at 200 mg wet weight/mL of the buffer for the binding assay.
For [^3H]-glycine binding at the N-methyl-D-aspartate receptor, 20 nanomolar [^3H]-glycine (40-60 Ci/mmol, New England Nuclear, Boston, MA) is incubated with the membranes suspended in 50 millimolar tris (hydroxymethyl)aminomethane citrate, pH 7.1 for 30 minutes at 4 °C. Glycine, 1 millimolar, is used to define the nonspecific binding. Bound [^3H]-glycine is isolated from free using a Brandel (Biomedical Research and Development Laboratories, Gaithersburg, MD) cell harvester for vacuum filtration over glass fiber filters (Whatman GF/B from Brandel, Gaithersburg, MD) presoaked in 0.025% polyethylenimine. The samples retained on the glass fiber filters are rinsed 3 times with a total of 2.5 mL ice cold buffer. Radioactivity is estimated by liquid scintillation counting. IC50 values are obtained from a least-squares regression of a logit-log transformation of the data. […]

Male SHR rats = test: Rat Middle Cerebral Artery test (Test C), permanent MCA occlusion; assay type: in vivo; settings: 24 hours after MCA/common carotid artery occlusion
Experimental: Male SHR rats weighing 280-320 g are used for these studies. The method used for permanent middle cerebral artery (MCA) occlusion is as described by Brint et al (1988). […] Following occlusions, drugs are administered intravenously via jugular catheter. Twenty-four hours after MCA/common carotid artery occlusion, the animals are sacrificed and their brains quickly removed. Coronal sections of 1 mm thickness are cut using a vibratome and stained with 2,3,5, triphenyl, 2H-tetrazolium chloride (TTC) dye. Following staining, necrotic tissue is readily distinguished from the intact brain and the area of infarcted cortex can be traced on an image analyzer. The infarct volume for each section is quantified with an image analyzer, and the total infarct volume is calculated with a program that summed all interval volume. See S. Brint et al. J. Cerebral Blood Flow 8:474-485 (1988). The statistical analysis of the difference between the volume of ischemic damage in the vehicle control and drug-treated animals is analyzed by student's-t-test. […] For example, the compound of example 145 at an I.V. dose of 10 mgs/kg/hr caused an infarct % volume change of -42% while a 5.0 mg/kg/hr I.V. dosage caused a -8% reduction.

**Q.** With NC1CCN(O)C1=O (racemic) [HA-966] as the compound, how does the ED50 ([1]; reference agents, intravenous, anesthetized rats, read-out: ID50 (the source's name)) read?
**A.** 7.9 mg/kg

**Q.** How did the ED50 ([1]; iv, read-out: ID50) turn out when C/C(=C\C(N)C(=O)O)CP(=O)(O)O (centres unmarked) [CGP 37849] was run?
**A.** 1.7 mg/kg

**Q.** How did the IC50 [2] turn out when Cc1ccc(-n2nc(O)c3c(c2=O)Cc2ccc(Cl)cc2N3)cc1 [Example 145, 7-Chloro-4-hydroxy-5,10-dihydro-2-(4'-methylphenyl)pyridazino[4,5-b]-quinoline-1-one] was run?
**A.** 45 nM

**Q.** What about the “infarct % volume change” value (Male SHR rats; 5.0 mg/kg/hr I.V. dosage) of the same compound?
**A.** -8%

**Q.** What about the “infarct % volume change” value (Male SHR rats; I.V. dose of 10 mgs/kg/hr) of the same compound?
**A.** -42%

**Q.** What about the ED50 ([1]; as the meglumine salt (N=5), administered iv, read-out: ID50 (the source's name)) of the same compound?
**A.** 6.54 mg/kg

**Q.** Which IC50 [2] does the source give for O=c1c2c(c(O)nn1-c1ccccc1)Nc1cc(Cl)ccc1C2 [Example 147, 7-chloro-4-hydroxy-2-phenyl-5,10-dihydro-2H-pyridazino [4,5-b]quinolin-1-one] here?
**A.** 17 nM

**Q.** How did the IC50 [2] turn out when COc1ccc(-n2nc(O)c3c(c2=O)Cc2ccc(Cl)cc2N3)cc1 [Example 148, 7-chloro-4-hydoxy-2-(4'-methoxyphenyl)-5,10-dihydro-2H-pyridazino[4,5-b]quinoline-1-one] was run?
**A.** 440 nM
